Results taken from paper PMC10534526 (Molecules, 2023).
Read-outs that look alike come from different tables or passages of the source.

Experiments:
[1] = Free radical scavenging activity (DPPH, Blois method); details: n = 3, read-out: Radical Scavenging Activity (EC50, Mean ± SD)
Experimental: The activity was tested using the spectrophotometric Blois method.
Radical scavenging activity (DPPH Method)
The stable 1, 1-diphenyl-2-picryl hydrazyl radical (DPPH) was used for determination of free radical-scavenging activity of the test compounds. The 0.1 mM solution of DPPH in methanol (39.4 mg in 1000 ml) was freshly prepared. Different concentrations of test compounds were added with an equal volume to methanol solution of DPPH. After 30 min at room temperature, the absorbance was recorded at 517 nm. Ascorbic acid was used as standard. IC50 values denote the concentration of sample, which is required to scavenge 50% of DPPH free radicals. IC50 value was determined from the plotted graph of scavenging activity against the different concentrations of test compounds. Ascorbic acid was applied as positive drug (Blois, 1958).

[2] = target: T1, brain AChE (rat cortex homogenate) (Rattus norvegicus, UniProt P37136); assay: biochemical
T1 construct: homogenate was used as the resource of AChE; from tissue; host or cells: rat cortex homogenate
T1 sequence (P37136 32-614): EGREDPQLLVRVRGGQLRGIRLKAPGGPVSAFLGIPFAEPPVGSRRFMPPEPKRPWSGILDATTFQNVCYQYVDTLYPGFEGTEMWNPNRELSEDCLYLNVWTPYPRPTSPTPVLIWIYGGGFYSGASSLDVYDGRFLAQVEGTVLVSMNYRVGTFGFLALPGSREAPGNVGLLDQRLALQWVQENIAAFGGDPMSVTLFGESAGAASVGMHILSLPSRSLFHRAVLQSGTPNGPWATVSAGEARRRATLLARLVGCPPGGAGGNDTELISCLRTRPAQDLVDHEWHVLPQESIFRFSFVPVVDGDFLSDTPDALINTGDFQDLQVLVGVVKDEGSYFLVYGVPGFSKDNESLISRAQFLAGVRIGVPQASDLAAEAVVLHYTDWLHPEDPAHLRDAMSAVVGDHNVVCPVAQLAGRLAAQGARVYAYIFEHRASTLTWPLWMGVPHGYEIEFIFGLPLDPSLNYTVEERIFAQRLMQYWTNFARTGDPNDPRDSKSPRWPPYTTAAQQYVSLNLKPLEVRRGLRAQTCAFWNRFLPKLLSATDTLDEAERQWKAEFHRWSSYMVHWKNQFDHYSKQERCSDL
Experimental: The ability of target compounds PS(1–10) to inhibit AChE was evaluated by the slightly modified Ellman’s method. The objective of attaching different amines to the 1,3-diphenylprop-2-enone skeleton via an ethoxy spacer was to enhance the interaction of the designed synthesized chalcones with both the PAS and CAS of AChE.
The inhibitory potential of synthesized compounds was evaluated for brain AChE by the widely used Ellman et al. process. The method involved using spectroscopic investigation at 450 nm. All the compounds with different concentrations were evaluated in triplicate including donepezil (standard AChE inhibitor).
In vitro inhibition of AChE
The inhibitory potency of target compounds on AChE was determined using spectroscopic […]
homogenate was used as the resource of AChE. For assay of AChE activity, a reaction mixture containing 100μl acetylthiocholine iodide 0.075M/L, 100μl sodium phosphate buffer (0.1M/L, pH 7.4), 20μl homogenate or serum and different concentrations of test compounds 20μl was incubated at 37° C for 15 min. The reaction was terminated by adding 50μl 3% sodium lauryl sulfate, then, 50μl, 0.2% of 5,5’–dithio-bis- (2-nitrobenzoic acid) (DTNB, 10 mg DTNB in 100 mL of Sorenson phosphate buffer, pH 8.0) was added to produce the yellow anion of 5-thio-2-nitro-benzoic acid. Assays were carried out with a blank containing all components except AChE in order to account for non-enzymatic reaction. The values of IC 50 were calculated by UV spectroscopy from the absorbance changes at 450 nm. A positive control of donepezil was used in the same range of concentrations. Each concentration was analyzed in triplicate. Data from concentration–inhibition experiments of the inhibitors were calculated by nonlinear regression analysis, using the GraphPad Prism 5 program. […]

AGE formation = AGE formation inhibitory activity (glucose-mediated protein glycation of BSA, spectrofluorometric); assay type: biochemical; details: n = 3, 60°C, 24 h, read-out: AGE Inhibitory Activity (IC50, Mean ± SD)
Experimental: The compound PS10 with 4-methylpiperazine had better anti-glycating effects compared to the unsubstituted piperazine compound (PS6). […]
The synthesized compounds were assayed by the spectrofluorometric method for inhibition of glucose-mediated protein glycation. All the compounds and aminoguanidine (positive control) with different concentrations were evaluated in triplicate. […]
In vitro advanced glycation end-product (AGEs) formation inhibitory activity The assay for the ability of the synthesized compounds to inhibit the glucose-mediated protein glycation and the development of ﬂuorescent AGEs was performed. Different concentrations of various compounds were prepared by dissolving in DMSO. Anti-glycation assay was performed according to the methods reported by Matsuura and colleagues with slight modification. In all experiments, about 500 µl of Bovine serum albumin (1mg/ml final concentration) was incubated with 400 µl of glucose (500 mM) in the presence of 100 µl of test compounds, aminoguanidine or PBS as control buffer at different concentrations, The reaction was allowed to proceed at 60°C for 24hrs and thereafter reaction was stopped by adding 10 µl of 100% (w/v) trichloroacetic acid (TCA). Then the mixture was kept at 4°C for 10 min before subjected to centrifugation at 15,000 rpm. The precipitate was redissolved in 1ml alkaline PBS (pH10) and immediately quantified for relative amount of glycated BSA based on fluorescence intensity by spectrofluorometer LS-55 (Perkin Elmer) at 370 nm (excitation) and 440 nm (emission). Aminoguanidine was used as a positive control. Percentage inhibition was calculated. All experiments were performed in triplicate.

[3] = system: STZ-induced cognitive impairment in rats; assay: Morris Water Maze in STZ-induced dementia; assay type: in vivo, Wistar rats; details: STZ i.c.v. 3 mg/kg rats; PS10 2, 5, 10 mg/kg p.o., day 9 to 22
Experimental: The STZ model (i.c.v., 3 mg/kg) is commonly used to study AD in animals. The intracerebroventricular injection of STZ, at two sub-diabetogenic doses, induces a range of symptoms including impaired cognition, metabolic and molecular changes, and neuropathological symptoms in rodents which are often found in AD subjects. […] The ROS produced can cause damage to the myelin sheath and acetyl coenzyme-A in the hippocampus. As a result, there is an increase in AChE activity, leading to behavioral disturbances, as in Alzheimer’s disease. Thus, this model is frequently used for AD interventions.
MWM is the most commonly used method to measure learning and spatial memory in rats. MWM utilizes the natural swimming ability of rats. As a result, during the retrieval phase, there is no induced stress that could affect the results. The MWM model is commonly used to test drugs that enhance memory and provide neuroprotection. Thus, it has been used to understand the effect of PS10 on the memory of animals with induced cognitive impairment by means of restoring the ELT.
To induce cognitive impairment in rats, solutions of Streptozotocin (STZ, 3 mg/kg) in artificial cerebro-spinal fluid (ACSF) were given as i.c.v. (intracerebroventricular) injections. The STZ injections were administered bilaterally on days 1 and 3 of the experimental protocol. […]

[4] = system: brain GSH and TBARS levels; assay: Brain oxidative stress markers (GSH, TBARS) in STZ-treated rats; assay type: in vivo, Wistar rats; details: STZ i.c.v. rats; PS10 2, 5, 10 mg/kg p.o.
Excerpt: Another crucial factor that contributes to the progression of AD is oxidative stress. The brain is more vulnerable to oxidative damage compared to other organs due to its high energy demand, relatively lower level of antioxidant defense mechanisms, and high concentration of polyunsaturated fatty acids. STZ injection generates free radicals that overwhelm the brain’s defensive antioxidant system (GSH) and cause lipid membrane oxidation, leading to the production of malondialdehyde. Thus, in order to analyze the antioxidant property of PS10, the levels of TBARS and GSH were measured in the current investigation (Figure 6).
(§1) Groups IV, V, and VI (STZ + PS10): Following intracerebroventricular injections of STZ, animal groups were administered different doses of PS10 (2, 5, and 10 mg/kg, p.o., respectively), from 9 to 22 days.
(§2) After the behavioral experiment was completed, the rats were euthanized under mild anesthesia using cervical dislocation, and their brains were extracted. The homogenates were made in a buffer (pH 7.4) for further analysis. AChE activity, total protein levels, reduced GSH levels, and thiobarbituric acid reactive species (TBARS) levels were measured using the brain homogenates.

brain AChE = target: T2, brain AChE (Rattus norvegicus, UniProt P37136); assay: Brain AChE activity in STZ-treated rats (brain homogenate); assay type: in vivo; details: STZ i.c.v. rats; PS10 2, 5, 10 mg/kg p.o.
T2 construct: from tissue; host or cells: brain homogenate of STZ-treated Wistar rats
T2 sequence (P37136 32-614): T1 sequence (P37136 32-614)
Excerpt: The central cholinergic system is critical for cognitive function, and AD patients often suffer from cholinergic hypofunction due to increased AChE activity and the degeneration of cholinergic neurons. Animal studies have shown that the administration of STZ (i.c.v) increases brain AChE activity, which leads to cognitive impairment and memory deficits. […]. Possibly, due to these interactions between PS10 and amino acids of AChE, PS10 was able to inhibit AChE activity.
as §1, §2

[5] = n = 3, rat cortex homogenate, read-out: AChE Inhibitory Activity (IC50, Mean ± SD)

Question: With `O=C(C=Cc1ccc(OCCN2CCCCC2)cc1)c1ccccc1` [PS5, 1-Phenyl-3-(4-(2-(piperidin-1-yl)ethoxy)phenyl)prop-2-en-1-one] as the compound, how does the EC50 [1] read?
Answer: The EC50 was 34.4 ± 0.4 nM.

Question: And the IC50 [2, 5]?
Answer: Its IC50 is 19.7 ± 0.3 nM.

Question: What about the IC50 (AGE formation) of the same compound?
Answer: The IC50 was 55300 ± 200 nM.

Question: Which “ELT (escape latency time) in MWM” value [3] does the source give for `CN1CCN(CCOc2ccc(C=CC(=O)c3ccccc3)cc2)CC1` [PS10, 3-(4-(2-(p-Methylpiperazin-1-yl)ethoxy)phenyl)-1-phenylprop-2-en-1-one] here?
Answer: The value was “significantly decreased STZ-induced cognitive impairment”.

Question: What about the “TSTQ (time spent in target quadrant) in MWM” value [3] of the same compound?
Answer: Its value is “significantly decreased STZ-induced cognitive impairment”.

Question: What about the EC50 [1] of the same compound?
Answer: The EC50 was 22.83 ± 0.2 nM.

Question: And the IC50 [2, 5]?
Answer: Its IC50 is 15.3 ± 0.72 nM.

Question: What about the IC50 (AGE formation) of the same compound?
Answer: The IC50 was 49850 ± 130 nM.

Question: What about the “brain GSH level” value [4] of the same compound?
Answer: Its value is “reversed”.

Question: What about the “brain TBARS levels” value [4] of the same compound?
Answer: Its value is “reversed”.

Question: What about the “brain AChE activity” value (brain AChE) of the same compound?
Answer: The value was “restored”.

Question: With `CN(C)CCOc1ccc(C=CC(=O)c2ccccc2)cc1` [PS2, 3-(4-(2-(Dimethylamino)ethoxy)phenyl)-1-phenylprop-2-en-1-one] as the compound, how does the EC50 [1] read?
Answer: The EC50 was 49.85 ± 0.11 nM.

Question: What about the IC50 [2, 5] of the same compound?
Answer: Its IC50 is 52.51 ± 0.2 nM.

Question: And the IC50 (AGE formation)?
Answer: Its IC50 is 68600 ± 230 nM.

Question: With `N=C(N)NN` [Aminoguanidine (AG), Aminoguanidine, reference compound] as the compound, how does the IC50 (AGE formation) read?
Answer: Its IC50 is 44300 ± 120 nM.

Question: For `CCN(CC)CCOc1ccc(C=CC(=O)c2ccccc2)cc1` [PS3, 3-(4-(2-(Diethylamino)ethoxy)phenyl)-1-phenylprop-2-en-1-one], which EC50 [1] is on record?
Answer: Its EC50 is 49.41 ± 0.22 nM.

Question: What about the IC50 [2, 5] of the same compound?
Answer: Its IC50 is 47.5 ± 0.21 nM.

Question: And the IC50 (AGE formation)?
Answer: Its IC50 is 67300 ± 330 nM.

Question: For `O=C(C=Cc1ccc(OCCN2CCNCC2)cc1)c1ccccc1` [PS6, 1-Phenyl-3-(4-(2-(piperazin-1-yl)ethoxy)phenyl)prop-2-en-1-one], which EC50 [1] is on record?
Answer: The EC50 was 46.7 ± 0.24 nM.

Question: And the IC50 [2, 5]?
Answer: Its IC50 is 21.4 ± 0.8 nM.

Question: And the IC50 (AGE formation)?
Answer: Its IC50 is 64510 ± 200 nM.

Question: What does the source list for `O=C(C=Cc1ccc(O)cc1)c1ccccc1` [PS1, 3-(4-Hydroxyphenyl)-1-phenylprop-2-en-1-one]?
Answer: EC50 [1]: 22.4 ± 0.4 nM; IC50 [2]: 36.5 ± 0.42 nM; IC50 (AGE formation): 43600 ± 80 nM

Question: Which EC50 [1] does the source give for `O=C(C=Cc1ccc(OCCn2ccnc2)cc1)c1ccccc1` [PS9, 3-(4-(2-(1H-Imidazol-1-yl)ethoxy)phenyl)-1-phenylprop-2-en-1-one] here?
Answer: Its EC50 is 48.58 ± 0.42 nM.

Question: What about the IC50 [2, 5] of the same compound?
Answer: Its IC50 is 26.3 ± 0.3 nM.

Question: And the IC50 (AGE formation)?
Answer: The IC50 was 65700 ± 170 nM.

Question: For `O=C1O[C@H]([C@@H](O)CO)C(O)=C1O` [Ascorbic acid, reference compound], which EC50 [1] is on record?
Answer: The EC50 was 21.7 ± 0.08 nM.

Question: Which EC50 [1] does the source give for `O=C(C=Cc1ccc(OCCN2CCOCC2)cc1)c1ccccc1` [PS7, 3-(4-(2-Morpholinoethoxy)phenyl)-1-phenylprop-2-en-1-one] here?
Answer: Its EC50 is 37.65 ± 0.24 nM.

Question: What about the IC50 [2, 5] of the same compound?
Answer: Its IC50 is 22.72 ± 0.13 nM.

Question: What about the IC50 (AGE formation) of the same compound?
Answer: Its IC50 is 51200 ± 800 nM.

Question: With `CN(CCOc1ccc(C=CC(=O)c2ccccc2)cc1)Cc1ccccc1` [PS4, 3-(4-(2-(Benzyl(methyl)amino)ethoxy)phenyl)-1-phenylprop-2-en-1-one] as the compound, how does the EC50 [1] read?
Answer: Its EC50 is 49.48 ± 0.21 nM.

Question: What about the IC50 [2, 5] of the same compound?
Answer: The IC50 was 48.8 ± 0.04 nM.

Question: And the IC50 (AGE formation)?
Answer: The IC50 was 69390 ± 200 nM.

Question: Which EC50 [1] does the source give for `O=C(C=Cc1ccc(OCCN2CCCC2)cc1)c1ccccc1` [PS8, 1-Phenyl-3-(4-(2-(pyrrolidin-1-yl)ethoxy)phenyl)prop-2-en-1-one] here?
Answer: The EC50 was 48.64 ± 0.18 nM.

Question: And the IC50 [2, 5]?
Answer: Its IC50 is 32.72 ± 0.12 nM.

Question: And the IC50 (AGE formation)?
Answer: Its IC50 is 65410 ± 360 nM.
